{
  "source": "paper PMC3573960",
  "about": "(Molecular Neurodegeneration, 2012)",
  "key": {"Tg2576 mice [1]": {"system": "Tg2576 mice", "experiment": "Acute treatment study in Tg2576 mice, brain Aβ by ELISA after TBS extraction", "details": "4 h", "method": "Aβ peptide levels were quantified by sandwich ELISA. Plates were coated overnight at 4°C with either human anti-AβTotal (amino acids [aa] 27–37) or rodent anti-Aβ1-x (aa 1–8) rabbit polyclonal antibodies. For detection of Aβ38 and Aβ42, plates were coated with antibodies specific for the carboxyl-terminal neoepitope of each peptide. Antibodies were from Dr. Pankaj Mehta (Institute for Basic Research in Developmental Disabilities, Staten Island, NY) [58].\nThe 10 and 30 mg/kg doses were a solution and a suspension, respectively. […] After extraction of the brain, olfactory bulbs and hindbrain were removed and the cerebral hemispheres were cut into 4 pieces. […] All tissue samples were weighed, frozen in liquid nitrogen, and stored at −80°C until analysis.\nIn order to examine both soluble and insoluble pools of Aβ, sequential extraction of Tg2576 mouse brain samples was performed to produce 4 pools of Aβ, essentially as described elsewhere [37]. Briefly, brains were homogenized in 25 mM TBS, pH 7.4 with protease inhibitors (Mini Complete™) to release the soluble Aβ into the resulting supernatants after high speed ultracentrifugation. […] The extracted Aβ from each step was subjected to ELISA for human Aβ42, Aβ38, and AβTotal, as described above."}, "[2]": {"experiment": "MTS cytotoxicity assay in H4-APP751 cells", "details": "human", "method": "Cytotoxicity was evaluated using CellTiter 96® AQueous One Solution Cell Proliferation Assay (MTS Assay, Promega, Madison, WI) according to the manufacturer’s protocol."}, "Measured LogD": {"experiment": "Measured LogD", "assay_type": "physicochemical"}, "γ-secretase": {"system": "γ-secretase", "experiment": "APP CTF accumulation in H4-APP751 cell lysates (Western blot)", "assay_type": "cell-based, human", "details": "H4-APP751 cells, 16 h", "description": "Cells were lysed in situ and the resulting lysate cleared of nuclei by centrifugation, as described elsewhere. Samples were fractionated by SDS-PAGE on a 12% NuPage gel (Invitrogen), transferred to a nitrocellulose membrane, and immunoblotted with an anti-APP-CTF antibody (Sigma-Aldrich)."}, "[3]": {"system": "Aph1AL containing γ-secretase complexes", "experiment": "Cell-free γ-secretase assay, Aβ1-40 and Aβ1-42 by AlphaLisa", "assay_type": "biochemical, murine", "from_the_text": "DAPT was used as a reference positive control for the assay. For each assay condition, a 5-μL microsomal fraction, containing 1% CHAPSO (3-[(3-cholamidopropyl)dimethylammonio]-2-hydroxy-1-propanesulfonate) from murine embryonic fibroblasts (MEF) lacking the Aph-1A, Aph-1B, and Aph-1C genes [60] […] The other half of the reaction mixture was used to analyze the levels of Aβ1-40 and Aβ1-42 by AlphaLisa (Perkin Elmer, Waltham, MA)."}, "Tg2576 mice [4]": {"system": "Tg2576 mice", "experiment": "Amorfix A4 assay of aggregated Aβ in Tg2576 mouse brain", "assay_type": "in vivo", "details": "50 weeks", "description": "(§1) Male Tg2576 and WT mice were both derived from crosses of male Tg2576 mice and female B6SJLF1 mice (Taconic) and were singly housed upon arrival. […] Some animals were euthanized as described above. For histological studies, a subset of mice were euthanized by CO2 asphyxiation and transcardially perfused with cold 0.9% NaCl. The right hemispheres were immersion fixed in fresh 4% paraformaldehyde in 0.1 M phosphate buffer, pH 7.4 for 1 h, transferred to a 15% sucrose cryoprotectant for 24 h at room temperature, and on the next day, frozen in isopentane chilled by dry ice for 1 min. The left cerebral hemisphere was cut into 2 pieces, weighed, and frozen.\nThe A4 assay (Amorfix Life Sciences, Toronto, Canada) was employed to quantify levels of aggregated Aβ in Tg2576 mouse brains. […] Aβ was detected by immunoassay following incubation at 37°C with europium-fluorescent beads coupled to the mouse monoclonal 4G10 antibody (N-terminal Aβ, aa 1–17) and magnetic beads coupled to the antibodies 1F8 (C-terminal Aβ, aa 3–40) and 2H12 (C-terminal Aβ, aa 3–42). […] The intensity of the europium fluorescent signal was measured using time resolved fluorescence on each sample in triplicate and was taken as being directly proportional to the concentration of aggregated Aβ in the sample. […]"}, "[5]": {"experiment": "Measurement of EVP-0015962 in brain (LC-MS/MS)", "assay_type": "in vivo, mouse", "details": "for range of brain concentrations: C57BL/6 mice, 3 or 7 days; for concentration at 50 weeks: male, mouse, brain (cerebellum), oral", "description": "Mice were placed on the food formulations for 3 or 7 days and were euthanized, as described above, approximately 1 h after the onset of the light cycle.\n(§2) Male Tg2576 and WT mice were both derived from crosses of male Tg2576 mice and female B6SJLF1 mice (Taconic) and were singly housed upon arrival. […] Some animals were euthanized as described above. For histological studies, a subset of mice were euthanized by CO2 asphyxiation and transcardially perfused with cold 0.9% NaCl. […] The left cerebral hemisphere was cut into 2 pieces, weighed, and frozen.\nCerebellums were homogenized in a Mini-BeadBeater (Biospec Products, Inc., Bartlesville, OK)."}, "HEK293 cells": {"system": "HEK293 cells", "experiment": "CellTiter-Blue cell viability in HEK293 cells expressing NotchΔE", "assay_type": "cell-based, human", "details": "up to 30 μM"}, "Tg2576 mice [6]": {"system": "Tg2576 mice", "experiment": "Tolerability in chronic treatment study (body weight, organs, survival)", "assay_type": "in vivo, mouse", "description": "as §1"}, "Tg2576 mice [7]": {"system": "Tg2576 mice", "details": "mean (sem)", "description": "as §2\nThe right hemispheres were sectioned at 20 μm in the sagittal plane. From 12 levels, 7 sections were retained and processed. Aβ plaque load was quantified in sections doubly stained by immunohistochemistry with 6E10 antibody (N-terminal human Aβ, aa 1–16) and by ThioflavinS. Astrocytes were immunostained using a primary rabbit polyclonal antibody against GFAP (Dako, Glostrup, Denmark) and a fluorescently labelled secondary Cy2 antibody (Jackson ImmunoResearch Laboratories, West Grove, PA). Activated microglia were immunostained using a rat anti-murine CD11b primary antibody (AbD Serotec, Kidlington, UK) and a fluorescently labelled secondary Cy3 antibody (Jackson ImmunoResearch Laboratories). Astrocytes and microglia were labelled in a double incubation and sections were counterstained with DAPI to visualize cell nuclei.\nHippocampus and neocortex were measured separately, and the percent area of immunoreactivity or ThioflavinS staining per brain region was evaluated using automated image analysis software (Image Pro Plus, v. 6.2, Media Cybernetics, Bethesda, MD). Numbers and sizes of Aβ deposits were also counted automatically. Measurements from 5 sections per mouse were averaged and the individual mouse average was used to calculate the group means."}},
  "note": "Like-named read-outs stand apart in the source and are kept apart here. Marks after values point to notes of the source that are not given here.",
  "data": [
    {"smiles": "O=C(O)[C@H](CC1CCC1)c1cc(Cl)c(OCC(F)(F)F)c(-c2ccc(C(F)(F)F)cc2)c1", "note": "[EVP-0015962, (R)-2-(5-chloro-6-(2,2,2-trifluoroethoxy)-4’-(trifluoromethyl)biphenyl-3-yl)-3-cyclobutylpropanoic acid]", "values": [
      {"measurement": "decrease in brain Aβ42 compared to vehicle-treated mice", "setting": "Tg2576 mice [1]; 10 mg/kg p.o., TBS extraction (NS)", "value": 22, "unit": "%"},
      {"measurement": "decrease in brain Aβ42 compared to vehicle-treated mice", "setting": "Tg2576 mice [1]; 30 mg/kg p.o., TBS extraction (p < 0.05)", "value": 39, "unit": "%"},
      {"measurement": "brain AβTotal", "setting": "Tg2576 mice [1]; 10 or 30 mg/kg p.o.", "value": "remained unchanged"},
      {"measurement": "IC50", "setting": "[2]", "value": "5.56 ± 0.51", "unit": "µM"},
      {"measurement": "logD", "setting": "Measured LogD", "value": 3.88},
      {"measurement": "Full length APP", "setting": "γ-secretase; 1 nM to 10 μM", "value": "not altered"},
      {"measurement": "accumulation of APP α- or β-CTFs", "setting": "γ-secretase; concentrations up to 10 μM", "value": "did not cause the accumulation"},
      {"measurement": "levels of Aβ40 in the cell-free assay", "setting": "[3]", "value": "without affecting"},
      {"measurement": "reduction in aggregated Aβ", "setting": "Tg2576 mice [4]; 20 mg/kg/day", "value": 19, "unit": "%"},
      {"measurement": "reduction in aggregated Aβ compared to the control diet group", "setting": "Tg2576 mice [4]; 60 mg/kg/day", "value": 73, "unit": "%"},
      {"measurement": "range of brain concentrations", "setting": "[5]; food formulation 20 mg/kg/day", "value": "1.5 to 3.1", "unit": "µM"},
      {"measurement": "range of brain concentrations", "setting": "[5]; food formulation 60 mg/kg/day", "value": "4.9 to 9.7", "unit": "µM"},
      {"measurement": "accumulation or cytochrome P450 enzyme induction (from brain concentrations)", "setting": "[5]; Tg2576 mice, 50 weeks vs short-term treatments", "value": "did not demonstrate accumulation or cytochrome P450 enzyme induction"},
      {"measurement": "concentration at 50 weeks", "setting": "[5]; Tg2576 mice, 20 mg/kg/day in food", "value": "2.5 ± 0.2", "unit": "µM"},
      {"measurement": "concentration at 50 weeks", "setting": "[5]; Tg2576 mice, 60 mg/kg/day in food", "value": "8.3 ± 0.6", "unit": "µM"},
      {"measurement": "oral bioavailability", "setting": "[5]; mice", "value": "orally bioavailable"},
      {"measurement": "cell viability", "setting": "HEK293 cells", "value": "did not affect"},
      {"measurement": "mortality (percent of group lost)", "setting": "Tg2576 mice [6]; Tg2576 mice, 60 mg/kg/day, 50 weeks", "value": 25, "unit": "%"},
      {"measurement": "body weight among the treatment groups", "setting": "Tg2576 mice [6]; Tg2576 mice, 20 or 60 mg/kg/day, 50 weeks", "value": "no significant differences"},
      {"measurement": "effects on intestinal goblet cells or any other organ system examined", "setting": "Tg2576 mice [6]; satellite animals, up to 60 mg/kg/day, 11 weeks", "value": "no evidence of effects"},
      {"measurement": "6E10 Aβ plaque Number/mm^2", "setting": "Tg2576 mice [7]; hippocampus, 20 mg/kg/day", "value": "61.0 (12.2)* percent of control"},
      {"measurement": "6E10 Aβ plaque Size (μm^2)", "setting": "Tg2576 mice [7]; hippocampus, 20 mg/kg/day", "value": "99.4 (15.7) percent of control"},
      {"measurement": "6E10 Aβ plaque percent area", "setting": "Tg2576 mice [7]; hippocampus, 20 mg/kg/day", "value": "62.1 (13.2)* percent of control"},
      {"measurement": "ThioflavinS Aβ plaque Number/mm^2", "setting": "Tg2576 mice [7]; hippocampus, 20 mg/kg/day", "value": "55.2 (15.6)* percent of control"},
      {"measurement": "ThioflavinS Aβ plaque Size (μm^2)", "setting": "Tg2576 mice [7]; hippocampus, 20 mg/kg/day", "value": "56.5 (16.3) percent of control"},
      {"measurement": "ThioflavinS Aβ plaque percent area", "setting": "Tg2576 mice [7]; hippocampus, 20 mg/kg/day", "value": "40.7 (16.9)** percent of control"},
      {"measurement": "6E10 Aβ plaque Number/mm^2", "setting": "Tg2576 mice [7]; hippocampus, 60 mg/kg/day", "value": "53.9 (16.8)* percent of control"},
      {"measurement": "6E10 Aβ plaque Size (μm^2)", "setting": "Tg2576 mice [7]; hippocampus, 60 mg/kg/day", "value": "104.1 (11.6) percent of control"},
      {"measurement": "6E10 Aβ plaque percent area", "setting": "Tg2576 mice [7]; hippocampus, 60 mg/kg/day", "value": "53.1 (15.2)* percent of control"},
      {"measurement": "ThioflavinS Aβ plaque Number/mm^2", "setting": "Tg2576 mice [7]; hippocampus, 60 mg/kg/day", "value": "50.7 (12.8)* percent of control"},
      {"measurement": "ThioflavinS Aβ plaque Size (μm^2)", "setting": "Tg2576 mice [7]; hippocampus, 60 mg/kg/day", "value": "58.9 (27.0) percent of control"},
      {"measurement": "ThioflavinS Aβ plaque percent area", "setting": "Tg2576 mice [7]; hippocampus, 60 mg/kg/day", "value": "27.3 (6.5)** percent of control"},
      {"measurement": "6E10 Aβ plaque Number/mm^2", "setting": "Tg2576 mice [7]; neocortex, 20 mg/kg/day", "value": "65.2 (8.8) percent of control"},
      {"measurement": "6E10 Aβ plaque Size (μm^2)", "setting": "Tg2576 mice [7]; neocortex, 20 mg/kg/day", "value": "105.5 (8.8) percent of control"},
      {"measurement": "6E10 Aβ plaque percent area", "setting": "Tg2576 mice [7]; neocortex, 20 mg/kg/day", "value": "69.2 (9.7) percent of control"},
      {"measurement": "ThioflavinS Aβ plaque Number/mm^2", "setting": "Tg2576 mice [7]; neocortex, 20 mg/kg/day", "value": "64.3 (8.0) percent of control"},
      {"measurement": "ThioflavinS Aβ plaque Size (μm^2)", "setting": "Tg2576 mice [7]; neocortex, 20 mg/kg/day", "value": "87.8 (12.2) percent of control"},
      {"measurement": "ThioflavinS Aβ plaque percent area", "setting": "Tg2576 mice [7]; neocortex, 20 mg/kg/day", "value": "64.3 (14.3) percent of control"},
      {"measurement": "6E10 Aβ plaque Number/mm^2", "setting": "Tg2576 mice [7]; neocortex, 60 mg/kg/day", "value": "71.3 (15.0) percent of control"},
      {"measurement": "6E10 Aβ plaque Size (μm^2)", "setting": "Tg2576 mice [7]; neocortex, 60 mg/kg/day", "value": "88.5 (5.4) percent of control"},
      {"measurement": "6E10 Aβ plaque percent area", "setting": "Tg2576 mice [7]; neocortex, 60 mg/kg/day", "value": "65.3 (16.3) percent of control"},
      {"measurement": "ThioflavinS Aβ plaque Number/mm^2", "setting": "Tg2576 mice [7]; neocortex, 60 mg/kg/day", "value": "59.6 (14.1) percent of control"},
      {"measurement": "ThioflavinS Aβ plaque Size (μm^2)", "setting": "Tg2576 mice [7]; neocortex, 60 mg/kg/day", "value": "58.1 (10.6)* percent of control"},
      {"measurement": "ThioflavinS Aβ plaque percent area", "setting": "Tg2576 mice [7]; neocortex, 60 mg/kg/day", "value": "29.9 (7.3)* percent of control"}
    ]}
  ]
}
